# Biological target: Aurora kinase B (Homo sapiens, UniProt Q96GD4)
# Assay: Inhibition of human Aurora-B assessed as residual activity at 1 uM relative to control
# Aurora kinase B, sequence (Q96GD4 whole entry): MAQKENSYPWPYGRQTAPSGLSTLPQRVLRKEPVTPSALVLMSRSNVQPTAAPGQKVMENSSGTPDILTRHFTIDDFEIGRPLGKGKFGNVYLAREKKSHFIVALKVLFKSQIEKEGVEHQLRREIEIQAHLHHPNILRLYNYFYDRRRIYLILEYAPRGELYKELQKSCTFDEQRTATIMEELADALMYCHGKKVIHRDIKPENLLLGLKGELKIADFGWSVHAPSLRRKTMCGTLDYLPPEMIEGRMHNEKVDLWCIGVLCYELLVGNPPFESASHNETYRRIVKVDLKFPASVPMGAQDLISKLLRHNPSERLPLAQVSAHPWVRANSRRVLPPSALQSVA
row,SMILES,Activity [%]
1,COc1ccc(-c2nc3cc(-c4csc(C(=O)NCC(C)(C)C)c4)cnc3[nH]2)cc1,75
2,COc1ccc(-c2nc3cc(-c4csc(C(=O)NCC(C)C)c4)cnc3[nH]2)cc1,43
3,COc1ccc(-c2nc3cc(-c4csc(C(=O)NCCC(C)C)c4)cnc3[nH]2)cc1,78

# Biological target: Protein-tyrosine kinase 6 (Homo sapiens) (UniProt Q13882)
# Assay: Inhibition of human BRK assessed as residual activity at 1 uM relative to control
# Protein-tyrosine kinase 6 (Homo sapiens), sequence (Q13882 whole entry, looked up): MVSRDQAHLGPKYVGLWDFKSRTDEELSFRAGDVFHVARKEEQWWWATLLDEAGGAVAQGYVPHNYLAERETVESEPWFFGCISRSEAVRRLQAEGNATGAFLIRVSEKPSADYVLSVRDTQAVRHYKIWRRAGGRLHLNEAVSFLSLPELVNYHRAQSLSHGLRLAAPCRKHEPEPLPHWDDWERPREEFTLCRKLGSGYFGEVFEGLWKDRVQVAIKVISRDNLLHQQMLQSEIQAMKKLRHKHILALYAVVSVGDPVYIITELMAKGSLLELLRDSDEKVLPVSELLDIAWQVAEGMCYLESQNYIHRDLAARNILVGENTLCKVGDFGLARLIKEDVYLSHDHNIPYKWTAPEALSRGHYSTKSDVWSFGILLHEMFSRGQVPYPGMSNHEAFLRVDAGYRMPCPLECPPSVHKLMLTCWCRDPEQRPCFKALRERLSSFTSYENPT
row,SMILES,Activity [%]
1,COc1ccc(-c2nc3cc(-c4csc(C(=O)NCC(C)(C)C)c4)cnc3[nH]2)cc1,102
2,COc1ccc(-c2nc3cc(-c4csc(C(=O)NCC(C)C)c4)cnc3[nH]2)cc1,110
3,COc1ccc(-c2nc3cc(-c4csc(C(=O)NCCC(C)C)c4)cnc3[nH]2)cc1,112

# Biological target: T1, Ephrin type-B receptor 1 (Homo sapiens) (UniProt P54762)
# T1 sequence (whole entry): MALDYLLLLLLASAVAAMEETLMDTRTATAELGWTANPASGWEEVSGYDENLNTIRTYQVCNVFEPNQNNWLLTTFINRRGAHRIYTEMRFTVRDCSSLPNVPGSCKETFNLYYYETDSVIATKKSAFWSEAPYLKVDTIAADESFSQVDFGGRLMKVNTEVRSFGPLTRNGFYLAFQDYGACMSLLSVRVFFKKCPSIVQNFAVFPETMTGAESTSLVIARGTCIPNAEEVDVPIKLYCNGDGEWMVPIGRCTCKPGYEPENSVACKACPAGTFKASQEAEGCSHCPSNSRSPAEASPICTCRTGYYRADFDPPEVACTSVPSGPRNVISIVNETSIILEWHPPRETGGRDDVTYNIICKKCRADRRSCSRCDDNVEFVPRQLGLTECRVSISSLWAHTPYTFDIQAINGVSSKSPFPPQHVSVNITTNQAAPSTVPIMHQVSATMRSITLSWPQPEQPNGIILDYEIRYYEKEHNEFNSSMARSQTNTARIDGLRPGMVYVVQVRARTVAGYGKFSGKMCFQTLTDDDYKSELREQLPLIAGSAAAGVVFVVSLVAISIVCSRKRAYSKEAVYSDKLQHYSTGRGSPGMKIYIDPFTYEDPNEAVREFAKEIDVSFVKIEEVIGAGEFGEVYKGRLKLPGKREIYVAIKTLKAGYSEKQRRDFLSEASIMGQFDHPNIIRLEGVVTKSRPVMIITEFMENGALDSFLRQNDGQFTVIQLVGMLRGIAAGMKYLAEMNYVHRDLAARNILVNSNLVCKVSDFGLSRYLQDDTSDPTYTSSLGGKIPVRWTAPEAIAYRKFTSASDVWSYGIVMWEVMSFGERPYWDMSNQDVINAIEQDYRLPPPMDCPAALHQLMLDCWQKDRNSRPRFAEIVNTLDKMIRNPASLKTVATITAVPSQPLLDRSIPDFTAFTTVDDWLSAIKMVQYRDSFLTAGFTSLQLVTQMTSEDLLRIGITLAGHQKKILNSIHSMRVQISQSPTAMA
# Assay: Inhibition of human EPHB1 assessed as residual activity at 1 uM relative to control
row,SMILES,Activity [%]
1,COc1ccc(-c2nc3cc(-c4csc(C(=O)NCC(C)(C)C)c4)cnc3[nH]2)cc1,74
2,COc1ccc(-c2nc3cc(-c4csc(C(=O)NCC(C)C)c4)cnc3[nH]2)cc1,72
3,COc1ccc(-c2nc3cc(-c4csc(C(=O)NCCC(C)C)c4)cnc3[nH]2)cc1,76

# Biological target: Serine/threonine-protein kinase PAK 4 (Homo sapiens) (UniProt O96013)
# Assay: Inhibition of human PAK4 assessed as residual activity at 1 uM relative to control
# Serine/threonine-protein kinase PAK 4 (Homo sapiens), sequence (O96013 whole entry, looked up): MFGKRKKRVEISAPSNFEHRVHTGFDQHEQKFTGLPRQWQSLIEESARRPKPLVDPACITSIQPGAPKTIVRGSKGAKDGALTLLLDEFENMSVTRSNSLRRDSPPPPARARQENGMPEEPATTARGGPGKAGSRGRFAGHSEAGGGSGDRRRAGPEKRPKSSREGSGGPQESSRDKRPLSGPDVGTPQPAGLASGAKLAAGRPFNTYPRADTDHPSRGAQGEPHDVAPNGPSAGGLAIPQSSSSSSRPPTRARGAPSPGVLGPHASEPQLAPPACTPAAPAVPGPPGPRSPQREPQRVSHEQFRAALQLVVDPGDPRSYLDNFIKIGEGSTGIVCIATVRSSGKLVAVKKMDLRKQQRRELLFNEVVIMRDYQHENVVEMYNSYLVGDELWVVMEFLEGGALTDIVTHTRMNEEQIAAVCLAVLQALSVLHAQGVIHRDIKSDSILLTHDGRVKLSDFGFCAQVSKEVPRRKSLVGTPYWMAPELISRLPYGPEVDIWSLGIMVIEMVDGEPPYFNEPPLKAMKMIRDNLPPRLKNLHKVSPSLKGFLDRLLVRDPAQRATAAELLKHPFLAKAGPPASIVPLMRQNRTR
row,SMILES,Activity [%]
1,COc1ccc(-c2nc3cc(-c4csc(C(=O)NCC(C)(C)C)c4)cnc3[nH]2)cc1,87
2,COc1ccc(-c2nc3cc(-c4csc(C(=O)NCC(C)C)c4)cnc3[nH]2)cc1,89
3,COc1ccc(-c2nc3cc(-c4csc(C(=O)NCCC(C)C)c4)cnc3[nH]2)cc1,83

# Biological target: Insulin receptor (Homo sapiens) (UniProt P06213)
# Assay: Inhibition of human IR assessed as residual activity at 1 uM relative to control
# Insulin receptor (Homo sapiens), sequence (P06213 28-758 limits assumed): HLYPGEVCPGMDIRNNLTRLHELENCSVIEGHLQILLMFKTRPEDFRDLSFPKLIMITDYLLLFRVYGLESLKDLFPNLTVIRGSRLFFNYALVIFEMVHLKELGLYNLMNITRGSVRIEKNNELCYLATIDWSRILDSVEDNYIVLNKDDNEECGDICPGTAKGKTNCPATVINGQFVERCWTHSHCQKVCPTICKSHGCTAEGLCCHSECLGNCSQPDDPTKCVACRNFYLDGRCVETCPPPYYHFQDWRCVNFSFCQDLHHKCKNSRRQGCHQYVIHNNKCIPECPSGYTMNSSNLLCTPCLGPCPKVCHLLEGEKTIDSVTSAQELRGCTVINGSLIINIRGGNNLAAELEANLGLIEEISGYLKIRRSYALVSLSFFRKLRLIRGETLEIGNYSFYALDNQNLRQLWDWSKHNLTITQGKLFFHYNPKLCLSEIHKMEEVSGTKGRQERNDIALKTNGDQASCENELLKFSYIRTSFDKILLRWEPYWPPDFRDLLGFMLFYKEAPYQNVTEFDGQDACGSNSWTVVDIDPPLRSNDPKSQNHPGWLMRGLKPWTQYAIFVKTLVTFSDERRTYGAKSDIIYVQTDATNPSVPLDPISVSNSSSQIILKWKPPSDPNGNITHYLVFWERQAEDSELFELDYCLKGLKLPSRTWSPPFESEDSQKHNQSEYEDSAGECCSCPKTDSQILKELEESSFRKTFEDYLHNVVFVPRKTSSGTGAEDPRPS
# Insulin receptor (Homo sapiens), sequence (P06213 763-1382 limits assumed): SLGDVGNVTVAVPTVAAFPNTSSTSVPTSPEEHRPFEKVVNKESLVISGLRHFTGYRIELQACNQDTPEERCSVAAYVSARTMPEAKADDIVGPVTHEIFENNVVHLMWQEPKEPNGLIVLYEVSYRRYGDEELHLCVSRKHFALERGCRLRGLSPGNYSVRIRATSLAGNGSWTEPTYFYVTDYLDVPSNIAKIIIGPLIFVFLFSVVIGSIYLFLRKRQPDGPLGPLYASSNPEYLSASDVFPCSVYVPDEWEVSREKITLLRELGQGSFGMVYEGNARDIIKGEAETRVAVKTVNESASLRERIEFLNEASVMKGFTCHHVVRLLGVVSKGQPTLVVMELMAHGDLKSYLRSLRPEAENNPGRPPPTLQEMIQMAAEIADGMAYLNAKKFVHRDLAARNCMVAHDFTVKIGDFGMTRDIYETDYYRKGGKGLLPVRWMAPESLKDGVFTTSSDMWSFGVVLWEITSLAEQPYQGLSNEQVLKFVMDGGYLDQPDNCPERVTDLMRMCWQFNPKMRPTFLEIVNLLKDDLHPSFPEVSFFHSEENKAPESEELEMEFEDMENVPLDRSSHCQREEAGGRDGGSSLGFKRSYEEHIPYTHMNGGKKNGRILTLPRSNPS
row,SMILES,Activity [%]
1,COc1ccc(-c2nc3cc(-c4csc(C(=O)NCC(C)(C)C)c4)cnc3[nH]2)cc1,92
2,COc1ccc(-c2nc3cc(-c4csc(C(=O)NCC(C)C)c4)cnc3[nH]2)cc1,102
3,COc1ccc(-c2nc3cc(-c4csc(C(=O)NCCC(C)C)c4)cnc3[nH]2)cc1,80

# Biological target: Calcium/calmodulin-dependent protein kinase type 1 (Homo sapiens) (UniProt Q14012)
# Assay: Inhibition of human CaMK1 assessed as residual activity at 1 uM relative to control
# Calcium/calmodulin-dependent protein kinase type 1 (Homo sapiens), sequence (Q14012 whole entry, looked up): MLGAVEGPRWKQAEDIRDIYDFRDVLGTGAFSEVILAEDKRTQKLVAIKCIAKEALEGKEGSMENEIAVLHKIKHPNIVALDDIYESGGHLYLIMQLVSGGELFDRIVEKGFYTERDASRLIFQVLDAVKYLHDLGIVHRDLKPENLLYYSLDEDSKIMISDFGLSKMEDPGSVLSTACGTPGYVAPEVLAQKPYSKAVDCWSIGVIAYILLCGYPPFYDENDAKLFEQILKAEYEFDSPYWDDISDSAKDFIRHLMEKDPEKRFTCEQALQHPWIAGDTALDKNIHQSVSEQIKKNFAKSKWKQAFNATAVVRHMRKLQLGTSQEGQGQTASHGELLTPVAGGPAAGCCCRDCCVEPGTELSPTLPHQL
row,SMILES,Activity [%]
1,COc1ccc(-c2nc3cc(-c4csc(C(=O)NCC(C)(C)C)c4)cnc3[nH]2)cc1,97
2,COc1ccc(-c2nc3cc(-c4csc(C(=O)NCC(C)C)c4)cnc3[nH]2)cc1,102
3,COc1ccc(-c2nc3cc(-c4csc(C(=O)NCCC(C)C)c4)cnc3[nH]2)cc1,83

# Biological target: Rho-associated protein kinase 1 (Homo sapiens) (UniProt Q13464)
# Assay: Inhibition of human ROCK-1 assessed as residual activity at 1 uM relative to control
# Rho-associated protein kinase 1 (Homo sapiens), sequence (Q13464 2-1354 limits assumed): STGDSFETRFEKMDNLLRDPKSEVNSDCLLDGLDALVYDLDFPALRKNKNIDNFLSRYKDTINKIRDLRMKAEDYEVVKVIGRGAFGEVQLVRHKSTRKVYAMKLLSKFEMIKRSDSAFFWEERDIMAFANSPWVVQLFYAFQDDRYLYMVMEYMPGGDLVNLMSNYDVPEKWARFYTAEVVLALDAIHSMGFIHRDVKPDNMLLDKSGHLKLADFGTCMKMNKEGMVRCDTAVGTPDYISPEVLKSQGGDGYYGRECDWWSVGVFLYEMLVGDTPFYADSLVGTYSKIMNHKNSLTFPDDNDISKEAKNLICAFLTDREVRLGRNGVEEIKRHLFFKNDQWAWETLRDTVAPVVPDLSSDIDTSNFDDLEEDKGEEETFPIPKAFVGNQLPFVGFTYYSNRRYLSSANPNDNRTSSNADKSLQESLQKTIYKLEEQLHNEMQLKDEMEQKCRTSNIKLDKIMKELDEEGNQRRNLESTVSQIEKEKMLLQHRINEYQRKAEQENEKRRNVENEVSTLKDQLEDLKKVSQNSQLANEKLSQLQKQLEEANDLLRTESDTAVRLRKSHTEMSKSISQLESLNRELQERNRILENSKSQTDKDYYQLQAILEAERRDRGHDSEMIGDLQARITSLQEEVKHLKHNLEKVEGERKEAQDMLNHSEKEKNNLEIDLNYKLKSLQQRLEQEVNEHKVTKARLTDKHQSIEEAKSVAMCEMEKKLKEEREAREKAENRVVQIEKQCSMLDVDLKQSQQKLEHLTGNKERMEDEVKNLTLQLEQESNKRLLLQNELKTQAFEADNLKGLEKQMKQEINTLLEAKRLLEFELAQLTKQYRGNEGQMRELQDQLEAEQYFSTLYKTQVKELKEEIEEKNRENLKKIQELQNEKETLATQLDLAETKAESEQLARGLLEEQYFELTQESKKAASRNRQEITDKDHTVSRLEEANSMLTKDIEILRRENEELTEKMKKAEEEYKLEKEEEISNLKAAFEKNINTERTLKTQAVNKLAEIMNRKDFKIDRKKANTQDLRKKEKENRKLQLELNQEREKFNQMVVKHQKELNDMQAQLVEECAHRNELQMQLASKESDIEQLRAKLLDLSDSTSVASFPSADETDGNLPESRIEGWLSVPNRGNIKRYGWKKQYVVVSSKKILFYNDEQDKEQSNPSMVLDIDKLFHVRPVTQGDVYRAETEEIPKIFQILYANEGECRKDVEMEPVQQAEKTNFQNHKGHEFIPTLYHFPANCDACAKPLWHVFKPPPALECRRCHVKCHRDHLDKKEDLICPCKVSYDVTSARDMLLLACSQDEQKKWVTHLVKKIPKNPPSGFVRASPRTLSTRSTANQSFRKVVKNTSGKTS
row,SMILES,Activity [%]
1,COc1ccc(-c2nc3cc(-c4csc(C(=O)NCC(C)(C)C)c4)cnc3[nH]2)cc1,104
2,COc1ccc(-c2nc3cc(-c4csc(C(=O)NCC(C)C)c4)cnc3[nH]2)cc1,113
3,COc1ccc(-c2nc3cc(-c4csc(C(=O)NCCC(C)C)c4)cnc3[nH]2)cc1,98

# Biological target: T2, Mitogen-activated protein kinase kinase kinase 7 (Homo sapiens) (UniProt O43318)
# T2 sequence (whole entry): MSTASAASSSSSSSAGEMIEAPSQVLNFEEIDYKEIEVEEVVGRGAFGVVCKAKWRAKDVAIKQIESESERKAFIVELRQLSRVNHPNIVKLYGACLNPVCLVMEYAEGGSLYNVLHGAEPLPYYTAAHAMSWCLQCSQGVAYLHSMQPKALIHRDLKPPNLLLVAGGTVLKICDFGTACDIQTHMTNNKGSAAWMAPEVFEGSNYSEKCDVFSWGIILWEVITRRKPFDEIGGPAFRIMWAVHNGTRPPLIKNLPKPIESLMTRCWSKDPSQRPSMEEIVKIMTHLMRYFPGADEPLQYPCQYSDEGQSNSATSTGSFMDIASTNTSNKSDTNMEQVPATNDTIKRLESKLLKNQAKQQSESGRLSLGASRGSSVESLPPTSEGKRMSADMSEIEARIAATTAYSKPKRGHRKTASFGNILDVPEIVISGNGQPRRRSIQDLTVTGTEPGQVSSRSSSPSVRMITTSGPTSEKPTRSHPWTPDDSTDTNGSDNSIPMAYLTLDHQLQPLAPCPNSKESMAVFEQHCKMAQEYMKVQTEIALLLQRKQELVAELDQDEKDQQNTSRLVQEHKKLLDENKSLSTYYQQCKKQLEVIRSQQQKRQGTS
# Assay: Inhibition of human TAK1 assessed as residual activity at 1 uM relative to control
row,SMILES,Activity [%]
1,COc1ccc(-c2nc3cc(-c4csc(C(=O)NCC(C)(C)C)c4)cnc3[nH]2)cc1,79
2,COc1ccc(-c2nc3cc(-c4csc(C(=O)NCC(C)C)c4)cnc3[nH]2)cc1,85
3,COc1ccc(-c2nc3cc(-c4csc(C(=O)NCCC(C)C)c4)cnc3[nH]2)cc1,85

# Biological target: T3, Protein kinase C epsilon type (Homo sapiens) (UniProt Q02156)
# T3 sequence (whole entry): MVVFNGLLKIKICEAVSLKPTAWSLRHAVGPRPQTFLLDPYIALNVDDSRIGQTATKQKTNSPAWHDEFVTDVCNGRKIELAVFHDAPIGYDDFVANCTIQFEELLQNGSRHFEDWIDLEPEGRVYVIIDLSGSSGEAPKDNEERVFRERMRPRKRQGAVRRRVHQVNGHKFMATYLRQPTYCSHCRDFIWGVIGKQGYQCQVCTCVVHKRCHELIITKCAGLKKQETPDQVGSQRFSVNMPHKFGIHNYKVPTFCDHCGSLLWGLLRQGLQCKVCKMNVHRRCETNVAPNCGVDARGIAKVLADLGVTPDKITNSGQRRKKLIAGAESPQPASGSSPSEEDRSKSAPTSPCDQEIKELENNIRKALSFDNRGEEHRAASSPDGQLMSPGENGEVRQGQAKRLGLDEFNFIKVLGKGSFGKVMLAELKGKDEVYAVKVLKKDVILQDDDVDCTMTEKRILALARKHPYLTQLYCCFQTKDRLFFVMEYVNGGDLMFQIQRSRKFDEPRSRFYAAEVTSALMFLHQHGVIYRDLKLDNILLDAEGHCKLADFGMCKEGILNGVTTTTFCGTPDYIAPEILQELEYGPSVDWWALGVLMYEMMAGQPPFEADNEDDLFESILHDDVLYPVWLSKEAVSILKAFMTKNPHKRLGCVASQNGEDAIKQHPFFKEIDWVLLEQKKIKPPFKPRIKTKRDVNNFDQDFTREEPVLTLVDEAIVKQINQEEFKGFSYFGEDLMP
# Assay: Inhibition of human PKC-epsilon assessed as residual activity at 1 uM relative to control
row,SMILES,Activity [%]
1,COc1ccc(-c2nc3cc(-c4csc(C(=O)NCC(C)(C)C)c4)cnc3[nH]2)cc1,90
2,COc1ccc(-c2nc3cc(-c4csc(C(=O)NCC(C)C)c4)cnc3[nH]2)cc1,96
3,COc1ccc(-c2nc3cc(-c4csc(C(=O)NCCC(C)C)c4)cnc3[nH]2)cc1,85
